Measured values taken from patent US7504400B2, “MTP inhibiting aryl piperydines or piperazines substituted with 5-membered heterocycles” (Janssen Pharmaceutica N.V., priority 2004, dated 2009).

Tested on: Secretion of ApoB
Assay: Quantification of the secretion of ApoB in HepG2 cells
Type: cell-based
Settings: Homo sapiens, HepG2, 24 h, 24 hours of incubation with test compound, immunoprecipitation of apoB from medium, read-out: pIC50 value (=-log IC50 value), secretion of ApoB (converted)
Outline: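 At 70% confluency, HepG2 cells in MEM with 10% FCS received compound or DMSO carrier (0.4% final) for 24 h. Secreted apoB in cleared medium immunoprecipitated with sheep anti-apoB then rabbit anti-sheep antibody (24 h each, 8° C); pellet radioactivity counted by liquid scintillation; IC50 expressed as pIC50.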

IC50 [nM]	Structure (SMILES)
31.6 to 316	CCCCCNC(=O)C(CN1CCN(c2ccc(-n3cnn(C(C)C)c3=O)cc2)CC1)c1ccccc1 (stereo not shown) [Compound 109]
31.6 to 316	CCNC(=O)C(c1ccccc1)N1CCN(c2ccc(-n3ncn(C(C)C)c3=O)cc2)CC1 (stereo not shown) [Compound 113]
31.6 to 316	CC(C)n1ncn(-c2ccc(C3CCN(C(C(=O)NCC(F)(F)F)c4ccccc4)CC3)cc2)c1=O (stereo not shown) [Compound 143]
316 to 3160	CC(C)n1ncn(-c2ccc(N3CCN(CCC(C(=O)NCc4ccccc4)c4ccccc4)CC3)cc2)c1=O (stereo not shown) [Compound 162]
316 to 3160	CC(C)n1ncn(-c2ccc(N3CCN(CC(C(=O)NCc4ccccc4)c4ccccc4)CC3)cc2)c1=O (stereo not shown) [Compound 130]
316 to 3160	CCCn1ncn(-c2ccc(N3CCC(C(C(=O)NC(C)C)c4ccccc4)CC3)cc2)c1=O (stereo not shown) [Compound 87]
316 to 3160	COC(CNC(=O)C(CN1CCN(c2ccc(-n3cnn(C(C)C)c3=O)cc2)CC1)c1ccccc1)OC (stereo not shown) [Compound 108]
316 to 3160	COC(=O)C(c1cccc(Cl)c1)N1CCN(c2ccc(-n3cnn(C(C)C)c3=O)cc2)CC1 (stereo not shown) [Compound 326]
316 to 3160	CC(C)NC(=O)C(c1ccccc1)C1CCN(c2ccc(-n3cnn(C/C=C/c4ccccc4)c3=O)cc2)CC1 (stereo not shown) [Compound 92]
316 to 3160	CCC(C)n1ncn(-c2ccc(N3CCN(C(C(=O)NCCO)c4ccccc4)CC3)cc2)c1=O (stereo not shown) [Compound 94]
31.6 to 316	CC(C)n1ncn(-c2ccc(N3CCN(C(C(=O)NCCNc4ccccc4)c4ccccc4)CC3)cc2)c1=O (stereo not shown) [Compound 80]
31.6 to 316	CCNC(=O)C(c1ccccc1)N1CCC(c2ccc(-n3cnn(C(C)C)c3=O)cc2)CC1 (stereo not shown) [Compound 139]
31.6 to 316	CC(C)n1ncn(-c2ccc(N3CCN(C(C(=O)NCc4cccc(C(F)(F)F)c4)c4ccccc4)CC3)cc2)c1=O (stereo not shown) [Compound 77]
316 to 3160	CC(C)n1ncn(-c2ccc(N3CCN(C(C(=O)NCCc4ccccn4)c4ccccc4)CC3)cc2)c1=O (stereo not shown) [Compound 72]

Further lines, the compound ahead of its results:

Structure (SMILES)	IC50 [nM]
Cc1cc(N2CCN(C(C(=O)Nc3ccc4c(c3)CCC4)c3ccccc3)CC2)ccc1N1CCN(C(C)C)C1=O (stereo not shown) [Compound 220]	< 31.6
CCCCCn1ncn(-c2ccc(N3CCC(C(C(=O)NCCC)c4ccccc4)CC3)cc2)c1=O (stereo not shown) [Compound 151]	31.6 to 316
O=C(NCc1ccccc1)C(c1ccccc1)C1CCN(c2ccc(-n3cnn(C/C=C/c4ccccc4)c3=O)cc2)CC1 (stereo not shown) [Compound 183]	31.6 to 316
CCCCn1ncn(-c2ccc(N3CCC(C(C(=O)NCCC)c4ccccc4)CC3)cc2)c1=O (stereo not shown) [Compound 150]	31.6 to 316
CCOC(=O)[C@@H](c1ccccc1)N1CCN(c2ccc(-n3ccn([C@@H](C)c4cc(C(F)(F)F)cc(C(F)(F)F)c4)c3=O)cc2)CC1 (relative stereo) [Compound 274]	316 to 3160
CCCCCn1ncn(-c2ccc(N3CCC(C(C(=O)Nc4ccccc4)c4ccccc4)CC3)cc2)c1=O (stereo not shown) [Compound 51]	31.6 to 316
O=C(Nc1ccc2c(c1)CCC2)C(c1ccccc1)C1CCN(c2ccc(-n3ncn(Cc4ccccc4)c3=O)cc2)CC1 (stereo not shown) [Compound 212]	< 31.6
CCOC(=O)C(c1ccccc1)N1CCC(c2ccc(-n3ccn([C@@H](C)c4ccc(F)cc4)c3=O)cc2)CC1 (stereo partly shown) [Compound 223]	316 to 3160
CCOC(=O)C(c1ccccc1)C1CCN(c2ccc(-n3ccn([C@H](COC)c4ccccc4)c3=O)cc2)CC1 (stereo partly shown) [Compound 259]	316 to 3160
CCOC(=O)C(c1ccccc1)C1CCN(c2ccc(-n3ccn([C@H](C)c4ccc(F)cc4)c3=O)cc2)CC1 (stereo partly shown) [Compound 244]	31.6 to 316
CCCCn1ncn(-c2ccc(N3CCC(C(C(=O)NC(C)C)c4ccccc4)CC3)cc2)c1=O (stereo not shown) [Compound 88]	31.6 to 316
CC(C)n1ncn(-c2ccc(N3CCC(CC(=O)Nc4ccc5c(c4)CCC5)CC3)cc2)c1=O [Compound 213]	316 to 3160
CCOC(=O)C(c1ccccc1)N1CCC(c2ccc(-n3ccn([C@H](C)c4cccc(C(F)(F)F)c4)c3=O)cc2)CC1 (stereo partly shown) [Compound 276]	31.6 to 316
CCOC(=O)[C@H](NC(=O)CC1CCN(c2ccc(-n3cnn(C(C)c4ccccc4)c3=O)cc2)CC1)C(C)C (stereo partly shown) [Compound 393]	31.6 to 316
